Read-outs that look alike come from different tables or passages of the source.
Assays:
[1] = system: forty-four human cancer cell lines; assay: Cell proliferation assay (ATPlite, 72 hours) in the 44 cell line Oncolines panel; type: cell-based; conditions: Homo sapiens
[2] = target: panel of more than 300 wild-type and mutant kinases (313 kinase panel) (Homo sapiens, UniProt O95819); assay: Kinase profiling in a biochemical assay panel (mobility shift assays and ELISA), %-inhibition at 1 μM; selectivity entropy; conditions: kinase HGK; compound at 1 μM
[3] = target: panel of more than 300 wild-type and mutant kinases (313 kinase panel) (Homo sapiens, UniProt P11362, V561M); assay: as above; conditions: kinase FGFR1(V561M); compound at 1 μM
[4] = target: panel of more than 300 wild-type and mutant kinases (313 kinase panel) (Homo sapiens, UniProt Q00535); assay: as above; conditions: kinase CDK5/p25; 1 μM compound
[5] = target: T1, panel of more than 300 wild-type and mutant kinases (313 kinase panel) (Homo sapiens, UniProt Q16832); assay: as above; conditions: kinase DDR2; compound at 1 μM
T1 sequence (Q16832 22-855): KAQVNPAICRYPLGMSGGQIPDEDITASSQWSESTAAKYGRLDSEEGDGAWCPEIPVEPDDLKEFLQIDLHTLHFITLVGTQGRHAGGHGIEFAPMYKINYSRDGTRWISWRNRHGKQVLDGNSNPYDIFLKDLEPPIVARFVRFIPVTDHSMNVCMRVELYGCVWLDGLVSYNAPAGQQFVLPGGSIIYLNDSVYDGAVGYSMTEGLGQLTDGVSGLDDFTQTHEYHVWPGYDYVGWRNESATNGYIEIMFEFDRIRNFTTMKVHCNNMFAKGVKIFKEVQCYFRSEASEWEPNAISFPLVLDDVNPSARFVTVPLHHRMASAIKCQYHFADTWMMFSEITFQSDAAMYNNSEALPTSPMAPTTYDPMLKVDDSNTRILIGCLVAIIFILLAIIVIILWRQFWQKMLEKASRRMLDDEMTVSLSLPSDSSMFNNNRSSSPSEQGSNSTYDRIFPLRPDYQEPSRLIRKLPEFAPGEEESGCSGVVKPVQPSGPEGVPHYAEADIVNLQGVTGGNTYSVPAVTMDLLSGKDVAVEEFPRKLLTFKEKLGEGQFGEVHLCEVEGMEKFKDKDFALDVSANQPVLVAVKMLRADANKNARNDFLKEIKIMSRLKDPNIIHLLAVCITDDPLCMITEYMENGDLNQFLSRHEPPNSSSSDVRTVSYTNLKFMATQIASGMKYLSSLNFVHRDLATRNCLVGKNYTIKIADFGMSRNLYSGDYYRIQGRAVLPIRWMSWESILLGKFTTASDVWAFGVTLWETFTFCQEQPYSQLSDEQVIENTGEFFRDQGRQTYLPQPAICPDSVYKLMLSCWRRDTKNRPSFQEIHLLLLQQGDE

[6] = target: panel of more than 300 wild-type and mutant kinases (313 kinase panel) (Homo sapiens, UniProt P19525); assay: as above; conditions: kinase PKR; 1 μM
[7] = target: panel of more than 300 wild-type and mutant kinases (313 kinase panel) (Homo sapiens, UniProt P22612); assay: as above; conditions: kinase PKACγ; 1 μM
[8] = A498, read-out: cell panel IC50, A-498
[9] = A549, read-out: cell panel IC50, A-549
[10] = A-427, read-out: cell panel IC50, A-427
[11] = AU565, read-out: cell panel IC50, AU-565
[12] = BT-549, read-out: cell panel IC50, BT-549
[13] = HCT-116, read-out: cell panel IC50, HCT-116
[14] = K562, read-out: cell panel IC50, K-562
[15] = LS174T, read-out: cell panel IC50, LS 174T

Compound CC(C)(C)c1nc(-c2cccc(NS(=O)(=O)c3c(F)cccc3F)c2F)c(-c2ccnc(N)n2)s1 [dabrafenib] has an IC50 ([1]; A 172, read-out: cell panel IC50, A-172) of 3.5 µM, an IC50 ([1]; A204, cell line A-204, read-out: cell panel IC50, A-204) of 4.69 µM and an IC50 [1, 8] of 2.28 µM. It also gave an IC50 [1, 9] of 4.12 µM, an IC50 ([1]; A-375, cell line A375, read-out: cell panel IC50, A375) of 0.026 µM and an IC50 [1, 10] of 3.45 µM. It also gave an IC50 [1, 11] of 5.92 µM, an IC50 [1, 12] of 5.73 µM and an IC50 [1, 13] of 0.85 µM. It also gave an IC50 [1, 14] of 13.5 µM, an IC50 [1, 15] greater than 31.6 µM and an IC50 ([1]; SHP77, cell line SHP-77, read-out: cell panel IC50, SHP-77) of 28.9 µM. It also gave an IC50 ([1]; SW-620, cell line SW620, read-out: cell panel IC50, SW620) of 2.47 µM, an IC50 ([1]; U2OS, cell line U-2 OS, read-out: cell panel IC50, U-2 OS) greater than 31.6 µM and an IC50 ([1]; cell line J82, read-out: cell panel IC50, J82) greater than 31.6 µM. For the same compound, the IC50 ([1]; cell line PA-1, read-out: cell panel IC50, PA-1) was 2.11 µM, the IC50 ([1]; cell line SJCRH30, read-out: cell panel IC50, SJCRH30) was greater than 31.6 µM and the IC50 ([1]; cell line SR, read-out: cell panel IC50, SR) was 2.12 µM. The IC50 ([1]; U-87 MG cell line, ATPlite, 72 hours, read-out: IC50 in cell proliferation assay (table S5 cellpanel data)) was greater than 31.6 µM, the IC50 ([1]; cell line 769-P, read-out: cell panel IC50, 769-P) was 10.9 µM and the IC50 ([1]; cell line 786-0, read-out: cell panel IC50, 786-0) was 3.3 µM. It also gave an IC50 ([1]; cell line ACHN, read-out: cell panel IC50, ACHN) of 1.15 µM, an IC50 ([1]; cell line AN3 CA, read-out: cell panel IC50, AN3 CA) greater than 31.6 µM and an IC50 ([1]; cell line BT-20, read-out: cell panel IC50, BT-20) greater than 31.6 µM. For the same compound, the IC50 ([1]; cell line BxPC-3, read-out: cell panel IC50, BxPC-3) was 2.68 µM, the IC50 ([1]; cell line C-33 A, read-out: cell panel IC50, C-33 A) was 3.31 µM and the IC50 ([1]; cell line CAL 27, read-out: cell panel IC50, CAL 27) was 30.8 µM. For the same compound, the IC50 ([1]; cell line CCRF-CEM, read-out: cell panel IC50, CCRF-CEM) was greater than 31.6 µM, the IC50 ([1]; cell line DLD-1, read-out: cell panel IC50, DLD-1) was 3.92 µM and the IC50 ([1]; cell line FaDu, read-out: cell panel IC50, FaDu) was 4.38 µM. For the same compound, the IC50 ([1]; cell line HCT-15, read-out: cell panel IC50, HCT-15) was 3.33 µM, the IC50 ([1]; cell line Hs 578T, read-out: cell panel IC50, Hs 578T) was 11.5 µM and the IC50 ([1]; cell line Jurkat E6.1, read-out: cell panel IC50, Jurkat E6.1) was 3.12 µM. For the same compound, the IC50 ([1]; cell line LoVo, read-out: cell panel IC50, LoVo) was 1.86 µM, the IC50 ([1]; cell line MG-63, read-out: cell panel IC50, MG-63) was greater than 31.6 µM and the IC50 ([1]; cell line MOLT-4, read-out: cell panel IC50, MOLT-4) was 29.1 µM. For the same compound, the IC50 ([1]; cell line MeWo, read-out: cell panel IC50, MeWo) was 6.49 µM, the IC50 ([1]; cell line NCI-H82, read-out: cell panel IC50, NCI-H82) was 2.54 µM and the IC50 ([1]; cell line NCI-H460, read-out: cell panel IC50, NCI-H460) was 2.98 µM. The IC50 ([1]; cell line OVCAR-3, read-out: cell panel IC50, OVCAR-3) was 5.26 µM, the IC50 ([1]; cell line RPMI-7951, read-out: cell panel IC50, RPMI-7951) was 0.024 µM and the IC50 ([1]; cell line SK-N-AS, read-out: cell panel IC50, SK-N-AS) was 3.55 µM. For the same compound, the IC50 ([1]; cell line SW48, read-out: cell panel IC50, SW48) was 10.6 µM, the IC50 ([1]; cell line SW480, read-out: cell panel IC50, SW480) was 16.6 µM and the “%-inhibition of HGK” value [2] was 7%. For the same compound, the “%-inhibition of FGFR1(V561M)” value [3] was -0.282%, the “%-inhibition, CDK5/p25” value [4] was 22% and the “%-inhibition of DDR2” value [5] was 100%.
COc1cc2c(Nc3ccc(Br)cc3F)ncnc2cc1OCC1CCN(C)CC1 [vandetanib] showed an IC50 ([1]; 4-4 cell, read-out: cell panel IC50, J82) of 5.08 µM, an IC50 ([1]; 4-4 cell, read-out: cell panel IC50, SJCRH30) of 4.02 µM and an IC50 ([1]; 4-4 cell, read-out: cell panel IC50, SR) of 4.15 µM. The IC50 ([1]; 769-P, read-out: cell panel IC50, 769-P) was 1.22 µM, the IC50 ([1]; 786-0, read-out: cell panel IC50, 786-0) was 4.37 µM and the IC50 ([1]; A204, read-out: cell panel IC50, A-204) was 2.5 µM. The IC50 [1, 8] was 3.31 µM, the IC50 [1, 9] was 5.49 µM and the IC50 ([1]; A-375, read-out: cell panel IC50, A375) was 3.27 µM. For the same compound, the IC50 [1, 10] was 2.55 µM, the IC50 ([1]; ACHN, read-out: cell panel IC50, ACHN) was 2.28 µM and the IC50 ([1]; AN3-CA, read-out: cell panel IC50, AN3 CA) was 0.489 µM. The IC50 [1, 11] was 3.51 µM, the IC50 ([1]; BT-20, read-out: cell panel IC50, BT-20) was 14.6 µM and the IC50 [1, 12] was 10 µM. The IC50 ([1]; BXPC-3, read-out: cell panel IC50, BxPC-3) was 2.1 µM, the IC50 ([1]; C-33-A, read-out: cell panel IC50, C-33 A) was 0.643 µM and the IC50 ([1]; CAL-27, read-out: cell panel IC50, CAL 27) was 1 µM. The IC50 ([1]; CCRF-CEM, read-out: cell panel IC50, CCRF-CEM) was 6.65 µM, the IC50 ([1]; DLD-1, read-out: cell panel IC50, DLD-1) was 6.07 µM and the IC50 ([1]; FaDu, read-out: cell panel IC50, FaDu) was 1.29 µM. For the same compound, the IC50 ([1]; HCT-15, read-out: cell panel IC50, HCT-15) was 7.38 µM, the IC50 [1, 13] was 9.24 µM and the IC50 ([1]; Hs-578T, read-out: cell panel IC50, Hs 578T) was 3.91 µM. The IC50 ([1]; Jurkat E6.1, read-out: cell panel IC50, Jurkat E6.1) was 3.95 µM, the IC50 [1, 14] was 0.908 µM and the IC50 [1, 15] was 2.81 µM. For the same compound, the IC50 ([1]; LoVo, read-out: cell panel IC50, LoVo) was 1.45 µM, the IC50 ([1]; MG-63, read-out: cell panel IC50, MG-63) was 6.46 µM and the IC50 ([1]; MOLT-4, read-out: cell panel IC50, MOLT-4) was 3.4 µM. For the same compound, the IC50 ([1]; MeWo, read-out: cell panel IC50, MeWo) was 5.52 µM, the IC50 ([1]; NCI-H82, read-out: cell panel IC50, NCI-H82) was 7.2 µM and the IC50 ([1]; NCI-H460, read-out: cell panel IC50, NCI-H460) was 11.9 µM. For the same compound, the IC50 ([1]; OVCAR-3, read-out: cell panel IC50, OVCAR-3) was 3.08 µM, the IC50 ([1]; RPMI-7951, read-out: cell panel IC50, RPMI-7951) was 4.14 µM and the IC50 ([1]; SHP77, read-out: cell panel IC50, SHP-77) was 14.6 µM. For the same compound, the IC50 ([1]; SK-N-AS, read-out: cell panel IC50, SK-N-AS) was 4.23 µM, the IC50 ([1]; SW48, read-out: cell panel IC50, SW48) was greater than 31.6 µM and the IC50 ([1]; SW480, read-out: cell panel IC50, SW480) was 13.8 µM. It also gave an IC50 ([1]; SW-620, read-out: cell panel IC50, SW620) of 16.4 µM, an IC50 ([1]; U2OS, read-out: cell panel IC50, U-2 OS) of 4.09 µM and an IC50 ([1]; U-87 MG, 72 h, read-out: IC50 in cell proliferation assay (table S5 cellpanel data)) of 7.41 µM. The “%-inhibition of HGK” value [2] was 69%, the “%-inhibition of PKR” value [6] was -1.09% and the “%-inhibition of PKACγ” value [7] was 6%. For the same compound, the “%-inhibition, CDK5/p25” value [4] was -25% and the “%-inhibition of DDR2” value [5] was 101%.

Source: article PMC3961306, “Comparison of the Cancer Gene Targeting and Biochemical Selectivities of All Targeted Kinase Inhibitors Approved for Clinical Use” (PLoS ONE, 2014)
